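Where inhibition never reached the appropriate level, the endpoint shown equals the highest concentration tested. Otherwise, values were interpolated linearly from a five-concentration, 48-hour dose response in 96-well plates. The concentration for 50% growth inhibition is given as GI50.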 Calls of active or inactive are those of the source. Cut-off read from the data, not from the text of the source: active = GI50 up to about 1.1 µM and inactive = higher.
Experiments:
Assay in all cases: DTP human tumour cell line panel, 48 h
786-0 = test system: 786-0
A498 = test system: A498
A549 = test system: A549
ACHN = test system: ACHN
CAKI-1 = test system: CAKI-1
CCRF-CEM = test system: CCRF-CEM
COLO 205 = test system: COLO 205
DLD-1 = test system: DLD-1
DMS-114 = test system: DMS-114
DMS-273 = test system: DMS-273
EKVX = test system: EKVX
HCC 2998 = test system: HCC 2998
HCT-116 = test system: HCT-116
HCT-15 = test system: HCT-15
HOP-62 = test system: HOP-62
HOP-92 = test system: HOP-92
HT-29 = test system: HT-29
IGROV-1 = test system: IGROV-1
K562 = test system: K562
KM-20L2 = test system: KM-20L2
KM12 = test system: KM12
LOX IMVI = test system: LOX IMVI
LXFL 529 = test system: LXFL 529
M14 = test system: M14
M19-MEL = test system: M19-MEL
MOLT-4 = test system: MOLT-4
Malme-3M = test system: Malme-3M
NCI-H226 = test system: NCI-H226
NCI-H23 = test system: NCI-H23
NCI-H460 = test system: NCI-H460
NCI-H522 = test system: NCI-H522
OVCAR-3 = test system: OVCAR-3
OVCAR-4 = test system: OVCAR-4
OVCAR-5 = test system: OVCAR-5
OVCAR-8 = test system: OVCAR-8
RPMI-8226 = test system: RPMI-8226
RXF 393 = test system: RXF 393
SF-268 = test system: SF-268
SF-295 = test system: SF-295
SF-539 = test system: SF-539
SK-MEL-28 = test system: SK-MEL-28
SK-MEL-2 = test system: SK-MEL-2
SK-MEL-5 = test system: SK-MEL-5
SK-OV-3 = test system: SK-OV-3
SN12C = test system: SN12C
SNB-19 = test system: SNB-19
SNB-75 = test system: SNB-75
SW-620 = test system: SW-620
TK-10 = test system: TK-10
U-251 = test system: U-251
UACC-257 = test system: UACC-257
UACC-62 = test system: UACC-62
UO-31 = test system: UO-31
XF498 = test system: XF498
HL-60 = test system: HL-60
HOP-18 = test system: HOP-18
SNB-78 = test system: SNB-78
SR = test system: SR

Measured: GI50

CC(=O)NC(CCCCN)C(=O)NCc1ccccc1 (stereo unspecified)
inactive: 786-0 > 100 µM | A498 > 100 µM | A549 > 100 µM | ACHN > 100 µM | CAKI-1 > 100 µM | CCRF-CEM > 100 µM | COLO 205 > 100 µM | DLD-1 > 100 µM | DMS-114 > 100 µM | DMS-273 > 100 µM | EKVX > 100 µM | HCC 2998 > 100 µM | HCT-116 > 100 µM | HOP-62 > 100 µM | HOP-92 > 100 µM | HT-29 > 100 µM | IGROV-1 > 100 µM | K562 > 100 µM | KM-20L2 > 100 µM | KM12 > 100 µM | LOX IMVI > 100 µM | LXFL 529 > 100 µM | M14 > 100 µM | M19-MEL > 100 µM | MOLT-4 > 100 µM | Malme-3M > 100 µM | NCI-H226 > 100 µM | NCI-H23 > 100 µM | NCI-H460 > 100 µM | NCI-H522 > 100 µM | OVCAR-3 > 100 µM | OVCAR-4 > 100 µM | OVCAR-5 > 100 µM | OVCAR-8 > 100 µM | RPMI-8226 > 100 µM | RXF 393 > 100 µM | SF-268 42.1 µM | SF-295 > 100 µM | SF-539 > 100 µM | SK-MEL-28 > 100 µM | SK-MEL-2 > 100 µM | SK-MEL-5 > 100 µM | SK-OV-3 > 100 µM | SN12C > 100 µM | SNB-19 > 100 µM | SNB-75 88.1 µM | SW-620 > 100 µM | TK-10 > 100 µM | U-251 > 100 µM | UACC-257 > 100 µM | UACC-62 > 100 µM | UO-31 > 100 µM | XF498 > 100 µM
> 100 µM: HCT-15

COC(=O)c1c(OC(=O)c2ccccc2)noc1CC(=O)OC1C=CCCC1 (stereo unspecified)
inactive: 786-0 > 100 µM | A498 68.5 µM | A549 > 100 µM | ACHN > 100 µM | CAKI-1 > 100 µM | CCRF-CEM 80 µM | COLO 205 > 100 µM | DLD-1 > 100 µM | DMS-114 38.5 µM | DMS-273 > 100 µM | HCC 2998 > 100 µM | HCT-116 > 100 µM | HL-60 35.1 µM | HOP-18 > 100 µM | HOP-62 > 100 µM | IGROV-1 > 100 µM | K562 72.6 µM | KM-20L2 > 100 µM | KM12 > 100 µM | LXFL 529 58.7 µM | M14 > 100 µM | MOLT-4 25.5 µM | Malme-3M > 100 µM | NCI-H226 > 100 µM | NCI-H460 > 100 µM | NCI-H522 45.4 µM | OVCAR-3 > 100 µM | OVCAR-4 > 100 µM | OVCAR-8 > 100 µM | RPMI-8226 > 100 µM | RXF 393 93.1 µM | SF-268 > 100 µM | SF-539 > 100 µM | SK-MEL-28 > 100 µM | SK-MEL-2 > 100 µM | SK-MEL-5 27.5 µM | SK-OV-3 > 100 µM | SN12C > 100 µM | SNB-19 > 100 µM | SNB-75 > 100 µM | SNB-78 > 100 µM | SR > 100 µM | SW-620 > 100 µM | TK-10 > 100 µM | U-251 > 100 µM | UACC-257 95.5 µM | UACC-62 28.6 µM | UO-31 66.4 µM
86.1 µM: HCT-15

CCCCC(C(=O)CCC(=O)Nc1ccc(Cl)c(Cl)c1)C(=O)C(C)C (stereo unspecified)
> 100 µM: HCT-15
inactive: 786-0 > 100 µM | A498 > 100 µM | A549 > 100 µM | ACHN 31.2 µM | CAKI-1 > 100 µM | CCRF-CEM > 100 µM | COLO 205 > 100 µM | DLD-1 > 100 µM | DMS-114 > 100 µM | DMS-273 52.4 µM | EKVX > 100 µM | HCC 2998 > 100 µM | HCT-116 > 100 µM | HL-60 > 100 µM | HOP-18 > 100 µM | HOP-62 > 100 µM | HOP-92 > 100 µM | HT-29 > 100 µM | IGROV-1 > 100 µM | K562 40.9 µM | KM-20L2 > 100 µM | KM12 84.7 µM | LOX IMVI 63.2 µM | LXFL 529 34.8 µM | M14 82.8 µM | M19-MEL > 100 µM | MOLT-4 > 100 µM | Malme-3M > 100 µM | NCI-H226 > 100 µM | NCI-H23 > 100 µM | NCI-H460 > 100 µM | NCI-H522 > 100 µM | OVCAR-3 > 100 µM | OVCAR-4 > 100 µM | OVCAR-5 32.3 µM | OVCAR-8 > 100 µM | RPMI-8226 > 100 µM | RXF 393 > 100 µM | SF-268 > 100 µM | SF-295 85.3 µM | SF-539 > 100 µM | SK-MEL-28 > 100 µM | SK-MEL-2 95.5 µM | SK-MEL-5 > 100 µM | SK-OV-3 > 100 µM | SN12C > 100 µM | SNB-19 > 100 µM | SNB-75 21.6 µM | SNB-78 > 100 µM | SR > 100 µM | SW-620 > 100 µM | TK-10 90.4 µM | U-251 > 100 µM | UACC-257 > 100 µM | UACC-62 19.6 µM | UO-31 > 100 µM

N#CC1=C(N)N2C(=O)/C(=C/c3ccccc3)SC2C(c2nc3ccccc3[nH]2)=C1c1ccccc1 (stereo unspecified)
inactive: 786-0 2.72 µM | A498 2.12 µM | A549 3.87 µM | ACHN 3.67 µM | CAKI-1 2.07 µM | CCRF-CEM 1.96 µM | COLO 205 5.98 µM | DLD-1 3.26 µM | DMS-114 2.16 µM | DMS-273 2.07 µM | EKVX 2.23 µM | HCC 2998 1.57 µM | HCT-116 3.45 µM | HL-60 2.31 µM | HOP-62 2.44 µM | HT-29 4.03 µM | IGROV-1 2.19 µM | K562 5.32 µM | KM-20L2 2.75 µM | KM12 3.55 µM | LOX IMVI 1.73 µM | LXFL 529 2.49 µM | M14 2.44 µM | M19-MEL 2.88 µM | MOLT-4 2.4 µM | Malme-3M 1.75 µM | NCI-H226 1.93 µM | NCI-H23 1.85 µM | NCI-H460 3.09 µM | NCI-H522 1.86 µM | OVCAR-3 1.89 µM | OVCAR-4 2.42 µM | OVCAR-5 2.54 µM | OVCAR-8 2.46 µM | SF-268 2.42 µM | SF-295 2.53 µM | SF-539 1.91 µM | SK-MEL-28 3.12 µM | SK-MEL-2 2.04 µM | SK-MEL-5 1.83 µM | SK-OV-3 1.68 µM | SN12C 2.91 µM | SNB-19 3.4 µM | SNB-75 1.74 µM | SNB-78 2.52 µM | SR 1.91 µM | SW-620 3.68 µM | TK-10 2.42 µM | U-251 2.44 µM | UACC-257 4.55 µM | UACC-62 2.17 µM | UO-31 1.93 µM | XF498 2.11 µM
active: HOP-92 0.687 µM
2.95 µM: HCT-15

c1ccc2[nH]c(-c3nc4ccccc4o3)nc2c1
> 100 µM: HCT-15
inactive: 786-0 > 100 µM | A498 > 100 µM | A549 > 100 µM | ACHN > 100 µM | CCRF-CEM > 100 µM | COLO 205 49.9 µM | DLD-1 > 100 µM | DMS-114 > 100 µM | DMS-273 > 100 µM | EKVX 8.65 µM | HCC 2998 > 100 µM | HCT-116 > 100 µM | HL-60 17.6 µM | HOP-62 > 100 µM | HOP-92 > 100 µM | HT-29 > 100 µM | IGROV-1 46.5 µM | KM-20L2 > 100 µM | KM12 > 100 µM | LOX IMVI 66.1 µM | LXFL 529 > 100 µM | M14 > 100 µM | M19-MEL > 100 µM | MOLT-4 > 100 µM | Malme-3M > 100 µM | NCI-H226 86.3 µM | NCI-H23 > 100 µM | NCI-H460 > 100 µM | NCI-H522 35.1 µM | OVCAR-3 > 100 µM | OVCAR-4 > 100 µM | OVCAR-5 > 100 µM | OVCAR-8 > 100 µM | RPMI-8226 81.3 µM | SF-268 > 100 µM | SF-295 > 100 µM | SF-539 > 100 µM | SK-MEL-28 > 100 µM | SK-MEL-2 > 100 µM | SK-MEL-5 62.8 µM | SK-OV-3 > 100 µM | SN12C > 100 µM | SNB-75 > 100 µM | SNB-78 > 100 µM | SR > 100 µM | TK-10 45.1 µM | U-251 > 100 µM | UACC-257 > 100 µM | UO-31 > 100 µM | XF498 > 100 µM
